Where “and” joins values, the source holds several entries; their conditions need not be identical. Identical values can stand only once.
System: 186277-243-T-J2-PDC complex spheroid viability
Test: Anticancer human tumor 186277-243-T-J2-PDC patient-derived colon adenocarcinoma cell line growth inhibition [GQUAD]
Details: for viability, T/C: stronger effect = lower value
Description: DNA G-quadruplex Stabilizer Agents in Combinations in Complex Spheroids
A high-throughput screen of multi-cell type tumor spheroids was designed to identify active combinations of DNA G-quadruplex stabilizer agents and targeted small molecules. Complex spheroids include a stromal component modeled by human endothelial cells (HUVEC) and fibroblasts modeled by human mesenchymal stem cells (MSCs). The concentration ranges selected for each drug and investigational agent were based upon clinically achievable concentrations if the clinical Cmax of the agent was known.
Compounds. The drugs and investigational agents: pidnarulex (CX-5461; NSC782164), APTO-253 (NSC789042), BRACO-19 (NSC847499), peposertib (NSC802822), ceralasertib (NSC780249), elimusertib (NSC800525), camonsertib (NSC841442), AZD-1390 (NSC803789), olaparib (NSC753686), talazoparib (NSC767125), ART-558 (NSC835418), sotorasib (NSC818433), MRTX-1133 (NSC836407), SN-38 (NSC673596), topotecan (NSC609699), etoposide (NSC141540), doxorubicin (NSC123127), gemcitabine (NSC613327), 5-fluorouracil (NSC19893), paclitaxel (NSC125973), vemurafenib (NSC761431), panobinostat (NSC761190), R-306465 (JNJ-16241199; NSC773264), adavosertib (NSC754352), TP-3654 (NSC805149), carboplatin (NSC241240), KSQ-4279 (NSC840948), and staurosporine (NSC755774) were obtained from the National Cancer Institute (NCI) Developmental Therapeutics Program Chemical Repository (34). The FDA-approved anticancer drug set is available from the NCI Developmental Therapeutics Program. […] The stock solutions were prepared in dimethyl sulfoxide (DMSO, Sigma-Aldrich, St. Louis, MO, cat. D2650) at 800-fold the tested concentration and stored at -70 degrees C prior to their use. All drugs and investigational agents were tested over a range starting from a high concentration at or near the clinical Cmax and decreasing in half-log increments. If the clinical Cmax for an agent had not been determined, the highest concentration tested was 10 microM.
2.3 Cell Culture. All cells were maintained in an incubator at 37 degrees C and 5% CO2 with 95% humidity. The PDC lines were cultured according to standard operating procedures established by the NCI PDMR. All PDCs were thawed and cultured in Matrigel-coated flasks prepared with a working solution of 1X Ham's F-12 nutrient mix, without supplementation (Invitrogen, cat. 11765054), 100 U/mL penicillin-streptomycin (Invitrogen, cat. 15140122), and 2.5% Matrigel (Corning Inc., cat. 354248) for the first three passages. The 857933-349-R-J2-PDC line was cultured in 6C/Colon 1B media, which includes advanced DMEM/F-12 (Thermo Fisher Scientific, cat. 12634028), 10 mM HEPES (Thermo Fisher Scientific, cat. 15630080), 1X GlutaMAX supplement (Thermo Fisher Scientific, cat. 35050061), 0.1 mg/mL primocin (InvivoGen, cat. ant-pm-2), 10% defined fetal bovine serum, heat inactivated (HyClone Laboratories Inc., cat. SH30070.03HI), 50% L-WRN conditioned media (ATCC, cat. CRL-3276), 1.25 mM N-Acetyl-L-cysteine (Sigma-Aldrich, cat. A9165), 10 mM nicotinamide (Sigma-Aldrich, cat. N0636), 1X B-27 supplement (Thermo Fisher Scientific, cat. 17504044), 1X N-2 supplement (Thermo Fisher Scientific, cat. 17502048), 10 microM Y-27632 dihydrochloride (Tocris Bioscience, cat. 1254), and 50 ng/mL human EGF recombinant protein (Thermo Fisher Scientific, cat. PHG0311). The 485176-168-R4-J1-PDC line was cultured in Panc media, which includes all 6C/Colon 1B media components plus 100 ng/mL human FGF-10 (Thermo Fisher Scientific, cat. 100-26), 500 nM SB-431542 (Selleckchem, cat. S1067), and gastrin (Tocris, cat. 3006).
[…]
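Also: spheroids exposed to drugs for 7 days.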
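For viability, T/C in this document: 100% = DMSO vehicle control viability.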

Question: Which results are given for C#Cc1c(F)ccc2cc(O)cc(-c3ncc4c(N5CC6CCC(C5)N6)nc(OCC56CCCN5CC(F)C6)nc4c3F)c12 (stereo not drawn)?
Answer: viability, T/C (compound 0.0316 µM): 99.9% and 94.8% and 64%; viability, T/C (compound 0.1 µM): 59.1% and 30.1% and 46.2%; viability, T/C (compound 0.316 µM): 26% and 13.2% and 19.2%; viability, T/C (compound 1 µM): 14.4% and 7.76% and 10.2%; viability, T/C (compound 3.16 µM): 17.8% and 7.17% and 7.07%; viability, T/C (compound 10 µM): 10.2% and 5.44% and 5.48%; IC50 (curve of compound): 137 nM and 70.6 nM and 77.1 nM

Question: How did the IC50 (curve of first compound, second compound 0.0316 µM) turn out when O=c1[nH]cc(F)c(=O)[nH]1 + CN(C)c1ccc(Nc2c3ccc(NC(=O)CCN4CCCC4)cc3nc3cc(NC(=O)CCN4CCCC4)ccc23)cc1 was run?
Answer: > 10000 nM

Question: What about the IC50 (curve of first compound, second compound 0.1 µM) of the same compound?
Answer: > 10000 nM

Question: What about the IC50 (curve of first compound, second compound 0.316 µM) of the same compound?
Answer: > 10000 nM

Question: And the IC50 (curve of first compound, second compound 1 µM)?
Answer: 7500 nM

Question: What about the IC50 (curve of first compound, second compound 3.16 µM) of the same compound?
Answer: 6320 nM

Question: What about the IC50 (curve of first compound, second compound 10 µM) of the same compound?
Answer: 7040 nM

Question: What about the viability, T/C (second compound 0.0316 µM, first compound 0.0316 µM) of the same compound?
Answer: 99%

Question: What about the viability, T/C (second compound 0.0316 µM, first compound 0.1 µM) of the same compound?
Answer: 97.1%

Question: And the viability, T/C (second compound 0.0316 µM, first compound 0.316 µM)?
Answer: 89%

Question: What about the viability, T/C (second compound 0.0316 µM, first compound 1 µM) of the same compound?
Answer: 98.8%

Question: What about the viability, T/C (second compound 0.0316 µM, first compound 3.16 µM) of the same compound?
Answer: 68.8%

Question: What about the viability, T/C (second compound 0.0316 µM, first compound 10 µM) of the same compound?
Answer: 50.8%

Question: What about the viability, T/C (second compound 0.1 µM, first compound 0.0316 µM) of the same compound?
Answer: 98.9%

Question: What about the viability, T/C (second compound 0.1 µM, first compound 0.1 µM) of the same compound?
Answer: 87%

Question: And the viability, T/C (second compound 0.1 µM, first compound 0.316 µM)?
Answer: 102%

Question: What about the viability, T/C (second compound 0.1 µM, first compound 1 µM) of the same compound?
Answer: 102%

Question: And the viability, T/C (second compound 0.1 µM, first compound 3.16 µM)?
Answer: 67.5%

Question: And the viability, T/C (second compound 0.1 µM, first compound 10 µM)?
Answer: 54.2%

Question: And the viability, T/C (second compound 0.316 µM, first compound 0.0316 µM)?
Answer: 94.2%

Question: What about the viability, T/C (second compound 0.316 µM, first compound 0.1 µM) of the same compound?
Answer: 94.5%

Question: What about the viability, T/C (second compound 0.316 µM, first compound 0.316 µM) of the same compound?
Answer: 101%

Question: What about the viability, T/C (second compound 0.316 µM, first compound 1 µM) of the same compound?
Answer: 93.4%

Question: And the viability, T/C (second compound 0.316 µM, first compound 3.16 µM)?
Answer: 62.1%

Question: And the viability, T/C (second compound 0.316 µM, first compound 10 µM)?
Answer: 51.1%

Question: What about the viability, T/C (second compound 1 µM, first compound 0.0316 µM) of the same compound?
Answer: 87.5%

Question: What about the viability, T/C (second compound 1 µM, first compound 0.1 µM) of the same compound?
Answer: 91.3%

Question: What about the viability, T/C (second compound 1 µM, first compound 0.316 µM) of the same compound?
Answer: 98.6%

Question: And the viability, T/C (second compound 1 µM, first compound 1 µM)?
Answer: 112%

Question: And the viability, T/C (second compound 1 µM, first compound 3.16 µM)?
Answer: 64.7%

Question: And the viability, T/C (second compound 1 µM, first compound 10 µM)?
Answer: 45.1%

Question: And the viability, T/C (second compound 3.16 µM, first compound 0.0316 µM)?
Answer: 97.2%

Question: What about the viability, T/C (second compound 3.16 µM, first compound 0.1 µM) of the same compound?
Answer: 104%

Question: What about the viability, T/C (second compound 3.16 µM, first compound 0.316 µM) of the same compound?
Answer: 104%

Question: What about the viability, T/C (second compound 3.16 µM, first compound 1 µM) of the same compound?
Answer: 101%

Question: What about the viability, T/C (second compound 3.16 µM, first compound 3.16 µM) of the same compound?
Answer: 66.5%

Question: And the viability, T/C (second compound 3.16 µM, first compound 10 µM)?
Answer: 39.1%

Question: What about the viability, T/C (second compound 10 µM, first compound 0.0316 µM) of the same compound?
Answer: 90.9%

Question: And the viability, T/C (second compound 10 µM, first compound 0.1 µM)?
Answer: 98.4%

Question: What about the viability, T/C (second compound 10 µM, first compound 0.316 µM) of the same compound?
Answer: 98.5%

Question: And the viability, T/C (second compound 10 µM, first compound 1 µM)?
Answer: 102%

Question: What about the viability, T/C (second compound 10 µM, first compound 3.16 µM) of the same compound?
Answer: 65.3%

Question: And the viability, T/C (second compound 10 µM, first compound 10 µM)?
Answer: 43.3%

Question: Which results are given for CC[C@@]1(O)C(=O)OCc2c1cc1n(c2=O)Cc2cc3c(CN(C)C)c(O)ccc3nc2-1?
Answer: viability, T/C (compound 0.000999 µM): 105% and 97.5% and 100%; viability, T/C (compound 0.00316 µM): 97.5% and 99.2% and 96.2%; viability, T/C (compound 0.00999 µM): 97.4% and 111% and 103%; viability, T/C (compound 0.0316 µM): 87.6% and 77.7% and 96.6%; viability, T/C (compound 0.0999 µM): 72.4% and 55.3% and 59.9%; viability, T/C (compound 0.316 µM): 50.6% and 42.9% and 46.2%; IC50 (curve of compound): > 316 nM and 104 nM and 230 nM

Question: What does the source list for CC1COCCN1c1cc(-c2ccnn2C)c2ccnc(-c3ccn[nH]3)c2n1 (stereo not drawn)?
Answer: viability, T/C (compound 0.0316 µM): 81.1% and 73.3% and 66.4%; viability, T/C (compound 0.1 µM): 12.5% and 11.9% and 12.3%; viability, T/C (compound 0.316 µM): 7.41% and 7.05% and 7.85%; viability, T/C (compound 1 µM): 5.96% and 5.12% and 5.67%; viability, T/C (compound 3.16 µM): 5.8% and 4.75% and 4.94%; viability, T/C (compound 10 µM): 7.05% and 4.45% and 5.66%; IC50 (curve of compound): 53.3 nM and 48.9 nM and 44.7 nM

Reference: PubChem BioAssay AID2060512 (Molecular Pharmacology Branch, DTP, NCI, 2025)
